From patent US5036008A, “Antitumor antibiotic BU-3285T” (Bristol-Myers Company, priority 1990, dated 1991)
Converted amounts (≈) assume the structure as drawn. “Also recorded” adds a separate entry of the source.

Assays:
Piricularia oryzae D91 = test: microbe, parasite or virus in culture; format: cell-based; settings: 40 h, pH 7
[1] = test system: B16-F10 (murine melanoma) cells; test: In vitro cytotoxicity (Table 14); format: cell-based; settings: Mus musculus, B16-F10, 72 h
Method: (§3) B16-F10 (murine melanoma), HCT-116 (human colon carcinoma), A549 (human lung carcinoma) and A549/VP29 (an etoposide-resistant subline of A549) were grown in Eagle's MEM (Nissui) supplemented with FCS (fetal calf serum, 10%) and non-essential amino acids (B16-F10), or in McCoy's 5A medium (Gibco) with FCS (10%), essential and non-essential amino acids, vitamins and antibiotics (HCT-116 and both of A549) at 37° C. under a humidified atmosphere in a 5% CO2 incubator. Exponentially growing B16-F10, HCT-116 and A549 cells were harvested, counted and suspended in the culture medium at 1.5×10^4, 3×10^4 and 3×10^4 cells/ml, respectively. After planting 180 μl of cell suspension into wells of a 96-well microtiter plate on day 0, the test materials (20 μl) were added on day 1 and the plates were incubated for 72 hours. The cytotoxic activity was colorimetrically determined at 540 nm after staining viable cells with neutral red solution.

[2] = test system: Fusarium moniliforme A2284; test: In vitro antifungal activity, serial agar dilution; settings: Fusarium verticillioides, A2284, 40 h, pH 7
Method: (§4) In vitro antifungal activity was determined against various fungi by the serial agar dilution method. Sabouraud dextrose agar (pH 7.0) was used for the experiment. The inoculum size was adjusted to 10^6 CFU/ml. After incubation at 28° C. for 40 hours, the minimum inhibitory concentration (MIC) was examined.

T. mentagrophytes #4329 = test: In vitro antifungal activity, serial agar dilution; settings: Trichophyton mentagrophytes, 40 h, pH 7
Method: as §4

C. neoformans IAM4514 = test: In vitro antifungal activity, serial agar dilution; settings: Cryptococcus neoformans, IAM4514, 40 h, pH 7
Method: as §4

[3] = test system: Sporothrix schenckii IF08158; test: microbe, parasite or virus in culture; settings: IF08158, 40 h, pH 7
Method: as §4

[4] = test system: Blastomyces dermatidis D40; test: In vitro antifungal activity, serial agar dilution; settings: D40, 40 h, pH 7
Method: as §4

A. flavus FA21436 = test: In vitro antifungal activity, serial agar dilution; settings: Aspergillus flavus, FA21436, 40 h, pH 7
Method: as §4

P388 leukemia = test: In vivo antitumor activity against P388 leukemia (Table 8); settings: for Body wt. change on day 4 / MST (median survival time) / T/C: Q1D × 3
Candida albicans IAM4888 = test: In vitro antifungal activity, serial agar dilution; settings: IAM4888, 40 h, pH 7
Method: as §4

C. albicans A9540 = test: In vitro antifungal activity, serial agar dilution; settings: Candida albicans, A9540, 40 h, pH 7
Method: as §4

[5] = test system: HCT-116 (human colon carcinoma) cells; test: In vitro cytotoxicity (Table 6); format: cell-based; settings: HCT-116, 72 hrs, neutral red
Method: (§1) BU-3285T was tested for in vitro cytotoxicity against several murine and human tumor cell lines and for in vivo antitumor activity in mice. Mitomycin C was used as a reference compound in both in vitro and in vivo experiments. B16-F10 (murine melanoma) and Moser (human colorectal carcinoma) cells were grown to the logarithmic phase in an enriched Eagle minimum essential medium supplemented with fetal calf serum (FCS, 10%) and kanamycin (60 μg/ml); HCT-116 (human colon carcinoma) cells were in McCoy's 5A medium supplemented with FCS (10%), penicillin (100 U/ml) and streptomycin (100 μg/ml); and P388 (murine lymphocytic leukemia) cells and its vincristine-resistant subline (P388/VCR) were in RPMI 1640 medium supplemented with FCS (10%), penicillin (100 U/ml) and streptomycin (100 μg/ml).
(§2) B16-F10, Moser, HCT-116 and P388 cells were harvested and implanted into wells of a 96-well (for B16-F10, Moser and HCT-116 cells) or a 24-well (for P388 cells) tissue culture plate with test materials at the inoculum sizes of 3×10^4, 6 ×10^4, 6×10^4 and 2×10^4 cells/ml, respectively. They were incubated at 37° C. in a humidified atmosphere of 5% CO2 and 95% air for 72 hrs. […] For P388 cells, the number of viable cells was determined by a Coulter counter.

[6] = test system: P388 (murine lymphocytic leukemia) cells; test: In vitro cytotoxicity (Table 6); format: cell-based; settings: Mus musculus; P388, 72 hrs, Coulter counter
Method: as §1, §2

[7] = test system: B16-F10 (murine melanoma) cells; test: In vitro cytotoxicity (Table 6); format: cell-based; settings: Mus musculus; B16-F10, 72 hrs, neutral red
Method: as §1, §2

[8] = test system: A549 (human lung carcinoma) cells; test: In vitro cytotoxicity (Table 14); format: cell-based; settings: A549, 72 h
Method: as §3

A. fumigatus IAM2034 = test: microbe, parasite or virus in culture; settings: Aspergillus fumigatus, IAM2034, 40 h, pH 7
Method: as §4

[9] = test system: A549/VP29 (etoposide-resistant subline of A549) cells; test: In vitro cytotoxicity (Table 14); settings: A549/VP29, 72 hours, neutral red
Method: After planting 180 μl of cell suspension into wells of a 96-well microtiter plate on day 0, the test materials (20 μl) were added on day 1 and the plates were incubated for 72 hours. The cytotoxic activity was colorimetrically determined at 540 nm after staining viable cells with neutral red solution.

Mucor spinosus IF05317 = test: In vitro antifungal activity, serial agar dilution; settings: IF05317, 40 h, pH 7
Method: as §4

fungi = test: In vitro antifungal activity, overall statement; settings: various fungi
Method: as §4

[10] = test system: Cryptococcus neoformans D49; test: In vitro antifungal activity, serial agar dilution; settings: D49, 40 h, pH 7
Method: as §4

B16 melanoma = test: In vivo antitumor activity against B16 melanoma (Table 10)
Method: Female CDF1 mice were intraperitoneally inoculated with 0.4 ml of diluted ascitic fluid containing 10^6 lymphocytic leukemia P388 cells or 10^5 lymphoid leukemia L1210 cells and male BDF1 mice were intraperitoneally inoculated with 0.5 ml of 10% melanotic melanoma B16 brei.

[11] = test system: Moser (human colorectal carcinoma) cells; test: In vitro cytotoxicity (Table 6)
Method: as §1, §2

[12] = test system: P388/VCR (vincristine-resistant subline of P388) cells; test: In vitro cytotoxicity (Table 6)
Method: as §1, §2

[13] = test system: DNA biosynthesis in L1210 leukemia cells; test: Inhibition of macromolecule biosynthesis, DNA (Table 15); format: cell-based, murine; settings: at 100 μg/ml, the highest concentration tested
Method: Inhibitory effects of the above compounds on macromolecule (DNA, RNA and protein) biosynthesis were determined in cultured L1210 murine leukemia cells. The cells (5×10^5 cells/ml) were incubated with the test materials at 37° C. for 15 minutes and then further incubated for 60 minutes after the addition of labeled precursor, ^3 H-thymidine, ^14 C-uridine or ^3 H-leucine into the cultured mixture. After washing with chilled 5% trichloroacetic acid solution, the radioactivity incorporated into the acid-insoluble fraction of the cells was determined with a liquid scintillation counter.

CCCCC/C=C/C=C\C=C/C(O)C(C)C(C/C=C/C1OC(=O)C=CC1O)OS(=O)(=O)O (centres unmarked) [BU-3285T]
MIC (Piricularia oryzae D91): 50 µg/mL (≈ 106 µM)
IC50 [1]: 38 µg/mL (≈ 80.8 µM)
MIC [2]: 25 µg/mL (≈ 53.1 µM)
MIC (T. mentagrophytes #4329): 12.5 µg/mL (≈ 26.6 µM)
MIC (C. neoformans IAM4514): 1.6 µg/mL (≈ 3.4 µM)
MIC [3]: 100 µg/mL (≈ 213 µM)
MIC [4]: 12.5 µg/mL (≈ 26.6 µM)
MIC (A. flavus FA21436): 50 µg/mL (≈ 106 µM)
Body wt. change on day 4 (P388 leukemia; 0.1 mg/kg/day ip): +1.5 g
MST (median survival time) (P388 leukemia; 0.1 mg/kg/day ip): 12.0 days
T/C (P388 leukemia; 0.1 mg/kg/day ip, significant if T/C ≥ 125%): 120%
Body wt. change on day 4 (P388 leukemia; 0.3 mg/kg/day ip): +1.0 g
MST (median survival time) (P388 leukemia; 0.3 mg/kg/day ip): 13.0 days
T/C (P388 leukemia; 0.3 mg/kg/day ip, *2 significant, T/C ≥ 125%): 130%
Body wt. change on day 4 (P388 leukemia; 1 mg/kg/day ip): +1.0 g
MST (median survival time) (P388 leukemia; 1 mg/kg/day ip): 14.0 days
T/C (P388 leukemia; 1 mg/kg/day ip, *2 significant, T/C ≥ 125%): 140%
Body wt. change on day 4 (P388 leukemia; 3 mg/kg/day ip): +1.5 g
MST (median survival time) (P388 leukemia; 3 mg/kg/day ip): 15.0 days
T/C (P388 leukemia; 3 mg/kg/day ip, *2 significant, T/C ≥ 125%): 150%
Body wt. change on day 4 (P388 leukemia; 10 mg/kg/day ip): 0.0 g
MST (median survival time) (P388 leukemia; 10 mg/kg/day ip): 16.0 days
T/C (P388 leukemia; 10 mg/kg/day ip, *2 significant, T/C ≥ 125%): 160%
activity compared with mitomycin C (P388 leukemia; P388, in terms of minimum effective dose): comparable
in vivo antitumor activity (P388 leukemia; P388 leukemia in mice): potent in vivo inhibitory activity; also recorded: good antitumor activity
MIC (Candida albicans IAM4888): 25 µg/mL (≈ 53.1 µM)
MIC (C. albicans A9540): 25 µg/mL (≈ 53.1 µM)
IC50 [5]: 3.4 µg/mL (≈ 7.23 µM)
IC50 [6]: 3.8 µg/mL (≈ 8.08 µM)
IC50 [7]: 13.3 µg/mL (≈ 28.3 µM)
IC50 [8]: 4.1 µg/mL (≈ 8.71 µM)
MIC (A. fumigatus IAM2034): > 100 µg/mL
IC50 [9]: 17 µg/mL (≈ 36.1 µM)
MIC (Mucor spinosus IF05317): 25 µg/mL (≈ 53.1 µM)
antifungal activity in vitro (fungi): exhibits in vitro antifungal activity
antifungal activity in vitro (fungi; listed as BU-3285 T): relatively good and broad antifungal profile
MIC [10]: 1.6 µg/mL (≈ 3.4 µM)
activity compared with mitomycin C (B16 melanoma; B16, in terms of minimum effective dose): somewhat weaker
in vivo antitumor activity (B16 melanoma; B16 melanoma in mice): potent in vivo inhibitory activity; also recorded: good antitumor activity
IC50 ([11]; Homo sapiens, 72 h): 0.85 µg/mL (≈ 1.81 µM)
cytotoxic activity, comparison among cell lines ([11]; among B16-F10, HCT-116 and Moser): most potent cytotoxic activity against Moser cells
IC50 ([12]; Mus musculus, P388/VCR, 72 h): 4.4 µg/mL (≈ 9.35 µM)
cytotoxicity against P388/VCR compared with parent cells ([12]; vs P388 parent): almost the same cytotoxicity
inhibitory effect on DNA synthesis [13]: no significant inhibitory effect
